ChEMBL document CHEMBL2021814, “Fragment-based and structure-guided discovery and optimization of Rho kinase inhibitors” (J Med Chem, 2012)
pIC50: −log10 of the molar value.

Assays:
[1] = target: Rho-associated protein kinase 1 (Homo sapiens, UniProt Q13464); experiment: Inhibition of human His-puritin-tagged ROCK1 expressed in Sf9 cells after 1 hr by FRET-based enzyme-coupled assay
[2] = target: Rho-associated protein kinase 2 (Homo sapiens, UniProt O75116); experiment: Inhibition of ROCK2 after 1 hr by FRET-based enzyme-coupled assay
Chain of Rho-associated protein kinase 2 (O75116 whole entry): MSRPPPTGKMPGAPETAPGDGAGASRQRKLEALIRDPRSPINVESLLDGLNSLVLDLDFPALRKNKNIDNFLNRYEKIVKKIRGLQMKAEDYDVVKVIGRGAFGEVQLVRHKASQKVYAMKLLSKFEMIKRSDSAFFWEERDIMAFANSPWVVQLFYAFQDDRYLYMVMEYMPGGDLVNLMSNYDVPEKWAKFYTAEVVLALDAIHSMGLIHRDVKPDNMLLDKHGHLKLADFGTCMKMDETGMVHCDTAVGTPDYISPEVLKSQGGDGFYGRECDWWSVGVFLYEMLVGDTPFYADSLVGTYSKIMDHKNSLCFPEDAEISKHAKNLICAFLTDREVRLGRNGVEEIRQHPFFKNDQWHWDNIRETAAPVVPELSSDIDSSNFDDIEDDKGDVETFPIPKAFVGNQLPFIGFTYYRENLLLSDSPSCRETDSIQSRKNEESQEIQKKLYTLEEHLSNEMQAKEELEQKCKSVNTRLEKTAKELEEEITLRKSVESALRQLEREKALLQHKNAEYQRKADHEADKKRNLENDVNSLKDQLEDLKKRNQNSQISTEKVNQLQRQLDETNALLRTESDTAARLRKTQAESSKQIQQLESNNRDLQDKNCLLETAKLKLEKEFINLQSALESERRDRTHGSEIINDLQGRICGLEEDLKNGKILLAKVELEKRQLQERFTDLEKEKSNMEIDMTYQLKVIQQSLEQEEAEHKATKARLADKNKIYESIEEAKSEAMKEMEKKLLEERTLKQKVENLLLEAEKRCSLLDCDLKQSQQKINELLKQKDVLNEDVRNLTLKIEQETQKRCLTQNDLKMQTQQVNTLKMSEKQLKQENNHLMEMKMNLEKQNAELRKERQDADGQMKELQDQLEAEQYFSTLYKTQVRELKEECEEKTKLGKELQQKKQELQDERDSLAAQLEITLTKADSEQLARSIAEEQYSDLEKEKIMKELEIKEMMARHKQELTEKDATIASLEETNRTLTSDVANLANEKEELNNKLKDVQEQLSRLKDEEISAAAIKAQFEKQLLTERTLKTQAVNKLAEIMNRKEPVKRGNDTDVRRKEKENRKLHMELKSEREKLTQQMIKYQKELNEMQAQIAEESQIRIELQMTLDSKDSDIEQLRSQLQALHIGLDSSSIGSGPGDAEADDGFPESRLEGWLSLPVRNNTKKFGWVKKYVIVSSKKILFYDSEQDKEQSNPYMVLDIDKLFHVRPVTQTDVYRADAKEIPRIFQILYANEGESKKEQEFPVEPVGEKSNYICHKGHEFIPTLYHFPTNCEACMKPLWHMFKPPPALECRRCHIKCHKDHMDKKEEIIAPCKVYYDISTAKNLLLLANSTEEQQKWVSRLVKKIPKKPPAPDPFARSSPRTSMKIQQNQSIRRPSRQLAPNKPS

Chain of Rho-associated protein kinase 1 (Q13464 whole entry): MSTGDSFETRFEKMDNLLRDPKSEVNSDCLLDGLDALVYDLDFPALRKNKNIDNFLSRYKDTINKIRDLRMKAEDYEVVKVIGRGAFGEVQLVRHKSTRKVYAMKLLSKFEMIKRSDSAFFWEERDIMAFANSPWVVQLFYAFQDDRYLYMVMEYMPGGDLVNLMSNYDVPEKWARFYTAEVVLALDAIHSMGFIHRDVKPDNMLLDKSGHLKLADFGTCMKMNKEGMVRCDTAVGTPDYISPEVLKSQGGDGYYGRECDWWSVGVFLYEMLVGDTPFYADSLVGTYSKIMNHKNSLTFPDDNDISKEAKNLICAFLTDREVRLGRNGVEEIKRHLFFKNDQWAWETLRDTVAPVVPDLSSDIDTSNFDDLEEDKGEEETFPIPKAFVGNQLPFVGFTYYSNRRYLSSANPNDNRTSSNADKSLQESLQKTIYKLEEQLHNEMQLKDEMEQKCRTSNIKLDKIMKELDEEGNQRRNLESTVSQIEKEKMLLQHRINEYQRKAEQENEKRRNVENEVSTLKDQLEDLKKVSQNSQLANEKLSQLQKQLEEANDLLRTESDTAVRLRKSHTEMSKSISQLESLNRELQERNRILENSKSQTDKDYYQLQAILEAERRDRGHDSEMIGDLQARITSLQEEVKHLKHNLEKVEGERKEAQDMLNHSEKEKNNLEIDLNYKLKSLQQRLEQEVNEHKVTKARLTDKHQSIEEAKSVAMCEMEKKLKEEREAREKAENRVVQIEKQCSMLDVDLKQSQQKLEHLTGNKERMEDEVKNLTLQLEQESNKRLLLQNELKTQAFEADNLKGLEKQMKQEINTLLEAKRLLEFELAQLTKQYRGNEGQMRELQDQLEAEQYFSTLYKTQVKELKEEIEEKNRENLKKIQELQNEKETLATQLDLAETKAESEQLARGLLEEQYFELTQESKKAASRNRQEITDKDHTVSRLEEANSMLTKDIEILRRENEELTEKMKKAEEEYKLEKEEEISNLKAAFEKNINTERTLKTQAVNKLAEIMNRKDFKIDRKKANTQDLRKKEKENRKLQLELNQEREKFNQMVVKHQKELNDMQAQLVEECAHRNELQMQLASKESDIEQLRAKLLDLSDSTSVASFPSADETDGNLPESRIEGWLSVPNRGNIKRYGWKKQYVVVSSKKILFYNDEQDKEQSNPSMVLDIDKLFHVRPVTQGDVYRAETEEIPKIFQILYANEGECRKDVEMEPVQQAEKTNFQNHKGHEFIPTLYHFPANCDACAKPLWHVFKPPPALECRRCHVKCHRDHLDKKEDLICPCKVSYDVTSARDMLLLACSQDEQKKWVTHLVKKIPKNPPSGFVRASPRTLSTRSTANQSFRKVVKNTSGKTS

Row | pIC50 [1] | pIC50 [2] | SMILES
1 | < 3.40 | < 3.40 | O=C(Nc1ccncc1)c1cncc(-c2ccc(F)cc2)c1
2 | < 3.40 | < 3.40 | O=C(Nc1ccncc1)c1cnccc1-c1ccc(F)cc1
